Reference: ChEMBL document CHEMBL6074624, “FDA-approved small molecule kinase inhibitors for cancer treatment (2001-2015): Medical indication, structural optimization, and binding mode Part I” (Bioorg Med Chem, 2024)
In brackets after ≈: the same amount, converted by molar mass. Each block holds one molecule with its values, some of them ahead of it.

Key:
[1] = biological target: Epidermal growth factor receptor (Homo sapiens, UniProt P00533, L858R/T790M); experiment: Inhibition of EGFR L858R/T790M (unknown origin)
Epidermal growth factor receptor (Homo sapiens, UniProt P00533, L858R/T790M), sequence (P00533 25-1210 T790M/L858R limits assumed): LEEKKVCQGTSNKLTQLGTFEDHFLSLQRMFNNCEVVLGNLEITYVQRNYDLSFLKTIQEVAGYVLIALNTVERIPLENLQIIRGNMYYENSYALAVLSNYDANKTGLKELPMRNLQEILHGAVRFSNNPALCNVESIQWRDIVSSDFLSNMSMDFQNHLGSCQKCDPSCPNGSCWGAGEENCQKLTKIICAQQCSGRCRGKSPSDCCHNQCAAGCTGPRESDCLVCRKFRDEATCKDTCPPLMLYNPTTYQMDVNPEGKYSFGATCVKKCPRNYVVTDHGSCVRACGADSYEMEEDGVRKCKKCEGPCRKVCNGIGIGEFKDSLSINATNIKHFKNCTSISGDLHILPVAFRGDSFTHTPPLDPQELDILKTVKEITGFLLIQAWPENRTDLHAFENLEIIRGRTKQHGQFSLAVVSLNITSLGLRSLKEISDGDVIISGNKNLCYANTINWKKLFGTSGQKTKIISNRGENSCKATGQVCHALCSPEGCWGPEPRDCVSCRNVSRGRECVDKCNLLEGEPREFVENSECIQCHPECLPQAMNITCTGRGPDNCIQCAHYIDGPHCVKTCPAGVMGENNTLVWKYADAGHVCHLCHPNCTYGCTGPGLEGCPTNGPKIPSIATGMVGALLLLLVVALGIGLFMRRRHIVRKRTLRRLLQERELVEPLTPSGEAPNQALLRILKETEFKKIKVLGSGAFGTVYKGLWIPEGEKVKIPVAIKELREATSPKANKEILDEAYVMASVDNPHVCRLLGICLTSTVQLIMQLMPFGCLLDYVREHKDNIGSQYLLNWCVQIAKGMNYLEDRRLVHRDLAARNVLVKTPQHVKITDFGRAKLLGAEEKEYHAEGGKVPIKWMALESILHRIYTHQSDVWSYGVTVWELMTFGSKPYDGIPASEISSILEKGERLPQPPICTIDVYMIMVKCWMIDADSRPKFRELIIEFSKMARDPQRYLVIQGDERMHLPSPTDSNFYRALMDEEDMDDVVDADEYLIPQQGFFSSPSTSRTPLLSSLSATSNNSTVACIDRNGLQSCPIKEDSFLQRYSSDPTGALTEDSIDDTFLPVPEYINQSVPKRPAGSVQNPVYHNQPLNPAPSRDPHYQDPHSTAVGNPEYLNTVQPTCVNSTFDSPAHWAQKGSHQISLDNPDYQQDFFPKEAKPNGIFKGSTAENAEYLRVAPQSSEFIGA

[2] = test system: NCI-H1975; experiment: Antiproliferative activity against human NCI-H1975 cells assessed as reduction in cell viability after 24 hrs by MTT assay; format: functional, cell-based; settings: NCI-H1975, 24 h
[3] = test system: PC-9; experiment: Antiproliferative activity against human PC-9 cells assessed as reduction in cell growth incubated for 72 hrs by MTT assay; format: functional, cell-based; settings: PC-9, 72 h
[4] = test system: ACHN; experiment: Antiproliferative activity against human ACHN cells assessed as reduction in cell viability measured after 48 hrs by SRB assay; format: functional, cell-based
[5] = test system: HT-29; experiment: Antiproliferative activity against human HT-29 cells assessed as reduction in cell viability after 72 hrs by MTS assay; format: functional, cell-based; settings: HT-29, 72 h
[6] = test system: K562; experiment: Antiproliferative activity against human K562 cells assessed as reduction in cell growth; format: functional, cell-based
[7] = biological target: Hepatocyte growth factor receptor (Homo sapiens, UniProt P08581); experiment: Inhibition of c-Met (unknown origin)
[8] = Half life in mouse at 10 mg/kg, po by LC-MS/MS analysis; format: ADME, organism-based; settings: in vivo
[9] = test system: KB; experiment: cells; settings: Homo sapiens, 72 h
[10] = test system: A549; experiment: cells; settings: Homo sapiens, A549, 72 h
[11] = biological target: Proto-oncogene tyrosine-protein kinase Src (Homo sapiens, UniProt P12931)
Proto-oncogene tyrosine-protein kinase Src, sequence (P12931 2-536 limits assumed): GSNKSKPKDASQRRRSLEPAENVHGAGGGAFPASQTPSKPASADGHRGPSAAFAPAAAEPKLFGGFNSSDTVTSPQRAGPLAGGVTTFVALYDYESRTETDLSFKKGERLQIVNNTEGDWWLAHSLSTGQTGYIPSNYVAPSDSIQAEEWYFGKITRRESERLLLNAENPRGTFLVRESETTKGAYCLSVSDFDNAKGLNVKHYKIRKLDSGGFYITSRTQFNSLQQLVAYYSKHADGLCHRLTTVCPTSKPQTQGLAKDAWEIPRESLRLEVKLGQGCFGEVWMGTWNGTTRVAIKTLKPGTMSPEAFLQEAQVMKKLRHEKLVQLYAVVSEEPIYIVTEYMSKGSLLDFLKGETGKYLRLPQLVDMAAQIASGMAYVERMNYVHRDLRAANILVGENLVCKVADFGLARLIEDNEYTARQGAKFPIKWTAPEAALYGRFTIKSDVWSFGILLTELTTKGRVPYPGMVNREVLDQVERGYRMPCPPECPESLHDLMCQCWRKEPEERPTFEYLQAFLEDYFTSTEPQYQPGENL

[12] = biological target: Vascular endothelial growth factor receptor 2 (Homo sapiens, UniProt P35968); experiment: Inhibition of VEGFR-2 (unknown origin) expressed in NIH3T3 cells assessed as reduction in VEGFA induced protein phosphorylation; format: cell-based
Vascular endothelial growth factor receptor 2, sequence (P35968 whole entry): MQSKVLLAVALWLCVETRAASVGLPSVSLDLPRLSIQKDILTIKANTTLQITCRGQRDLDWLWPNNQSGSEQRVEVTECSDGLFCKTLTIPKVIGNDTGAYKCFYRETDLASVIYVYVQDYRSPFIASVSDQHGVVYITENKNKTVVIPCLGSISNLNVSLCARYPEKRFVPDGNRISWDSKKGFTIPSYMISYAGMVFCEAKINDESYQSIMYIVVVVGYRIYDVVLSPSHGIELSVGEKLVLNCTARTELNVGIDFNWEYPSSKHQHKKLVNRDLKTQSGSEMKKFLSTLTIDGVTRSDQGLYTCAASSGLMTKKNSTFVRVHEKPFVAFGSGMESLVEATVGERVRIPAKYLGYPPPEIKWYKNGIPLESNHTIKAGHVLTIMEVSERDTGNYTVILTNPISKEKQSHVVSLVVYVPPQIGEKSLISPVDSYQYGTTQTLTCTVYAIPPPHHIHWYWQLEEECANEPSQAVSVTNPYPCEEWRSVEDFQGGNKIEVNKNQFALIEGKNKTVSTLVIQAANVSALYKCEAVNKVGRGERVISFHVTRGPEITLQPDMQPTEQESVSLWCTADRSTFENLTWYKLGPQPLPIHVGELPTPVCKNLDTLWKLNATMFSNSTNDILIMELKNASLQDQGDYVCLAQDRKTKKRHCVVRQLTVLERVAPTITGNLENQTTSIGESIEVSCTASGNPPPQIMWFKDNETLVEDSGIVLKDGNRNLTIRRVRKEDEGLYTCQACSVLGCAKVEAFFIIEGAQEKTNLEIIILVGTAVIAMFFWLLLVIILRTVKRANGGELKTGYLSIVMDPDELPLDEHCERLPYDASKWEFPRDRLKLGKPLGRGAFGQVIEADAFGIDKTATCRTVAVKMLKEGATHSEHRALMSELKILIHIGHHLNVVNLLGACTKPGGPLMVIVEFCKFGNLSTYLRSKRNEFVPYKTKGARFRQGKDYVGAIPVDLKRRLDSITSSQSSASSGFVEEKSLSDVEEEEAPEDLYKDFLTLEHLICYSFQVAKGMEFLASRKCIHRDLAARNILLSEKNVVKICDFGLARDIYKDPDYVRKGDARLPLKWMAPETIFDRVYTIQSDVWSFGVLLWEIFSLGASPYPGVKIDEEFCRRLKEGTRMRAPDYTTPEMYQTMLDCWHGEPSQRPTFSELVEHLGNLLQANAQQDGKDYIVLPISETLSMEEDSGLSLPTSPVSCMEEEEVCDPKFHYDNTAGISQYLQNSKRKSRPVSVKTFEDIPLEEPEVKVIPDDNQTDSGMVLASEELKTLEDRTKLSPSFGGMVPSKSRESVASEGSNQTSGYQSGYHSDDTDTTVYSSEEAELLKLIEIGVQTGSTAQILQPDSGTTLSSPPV

[13] = Inhibition of PDGFR (unknown origin) in NIH3T3 cells; format: cell-based, Homo sapiens
[14] = biological target: Vascular endothelial growth factor receptor 1 (Homo sapiens, UniProt P17948); experiment: Inhibition of VEGFR-1 (unknown origin)
[15] = Anticancer activity against human NCI-H1975 cells harboring EGFR L858R/T790M mutant assessed as reduction in cell viability measured after 72 hrs by MTT assay; format: functional, cell-based; settings: NCI-H1975, 72 h
[16] = test system: PC-9; experiment: Antiproliferative activity against human PC-9 cells harboring EGFR L858R mutant assessed as reduction in cell viability measured after 72 hrs by SRB assay; format: functional, cell-based; settings: PC-9, 72 h
[17] = test system: NCI-H1975; experiment: Growth inhibition of human NCI-H1975 cells; format: functional
[18] = test system: PC-9; experiment: Growth inhibition of human PC-9 cells; format: functional
[19] = test system: Calu-3; experiment: Growth inhibition of human Calu-3 cells; format: functional
[20] = Aqueous solubility of compound at pH 7.4 by LC-MS/MS analysis; format: physicochemical; settings: buffer
[21] = biological target: Voltage-gated inwardly rectifying potassium channel KCNH2 (Homo sapiens, UniProt Q12809); experiment: Inhibition of hERG; format: toxicity
Voltage-gated inwardly rectifying potassium channel KCNH2, sequence (Q12809 whole entry): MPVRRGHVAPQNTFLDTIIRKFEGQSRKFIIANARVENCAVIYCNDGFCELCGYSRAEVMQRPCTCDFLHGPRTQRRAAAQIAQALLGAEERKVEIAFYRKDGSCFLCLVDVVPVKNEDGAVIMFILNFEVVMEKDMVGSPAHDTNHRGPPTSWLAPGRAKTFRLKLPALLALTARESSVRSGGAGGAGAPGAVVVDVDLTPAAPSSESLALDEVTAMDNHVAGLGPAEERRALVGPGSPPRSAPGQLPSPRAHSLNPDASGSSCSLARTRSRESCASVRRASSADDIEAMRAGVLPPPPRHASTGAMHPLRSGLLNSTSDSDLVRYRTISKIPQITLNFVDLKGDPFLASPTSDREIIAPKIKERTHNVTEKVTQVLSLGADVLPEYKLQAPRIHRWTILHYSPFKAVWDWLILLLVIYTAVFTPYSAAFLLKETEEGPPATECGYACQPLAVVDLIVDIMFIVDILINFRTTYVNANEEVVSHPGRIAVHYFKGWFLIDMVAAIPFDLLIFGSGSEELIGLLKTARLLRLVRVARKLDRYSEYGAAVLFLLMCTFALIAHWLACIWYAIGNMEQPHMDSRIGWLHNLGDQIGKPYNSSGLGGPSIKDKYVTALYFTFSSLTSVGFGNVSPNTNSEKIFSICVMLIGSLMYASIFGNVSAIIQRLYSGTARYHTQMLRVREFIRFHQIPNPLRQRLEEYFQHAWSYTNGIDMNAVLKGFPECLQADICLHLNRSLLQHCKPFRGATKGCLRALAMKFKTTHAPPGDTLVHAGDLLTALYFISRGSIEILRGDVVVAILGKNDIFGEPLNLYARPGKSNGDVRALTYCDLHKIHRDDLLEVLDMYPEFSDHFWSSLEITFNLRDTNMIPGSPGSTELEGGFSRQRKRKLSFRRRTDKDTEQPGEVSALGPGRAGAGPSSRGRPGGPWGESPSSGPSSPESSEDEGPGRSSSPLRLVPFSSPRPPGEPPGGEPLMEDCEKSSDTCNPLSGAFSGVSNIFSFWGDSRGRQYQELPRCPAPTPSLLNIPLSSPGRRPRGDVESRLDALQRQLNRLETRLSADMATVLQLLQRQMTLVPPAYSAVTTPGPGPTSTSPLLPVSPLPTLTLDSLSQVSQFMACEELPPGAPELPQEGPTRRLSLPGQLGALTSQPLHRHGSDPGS

[22] = biological target: Epidermal growth factor receptor (Homo sapiens, UniProt P00533)
[23] = test system: Calu-6; experiment: Antitumor activity against human Calu-6 cells xenografted in athymic nude mouse assessed as tumor growth inhibition at 100 mg/kg, po administered once daily for 21 days relative to control; format: functional; set-up: scale not given: the % may be the effect or the level left; settings: time 21 day
[24] = Solubility in PBS at pH 7.4 incubated for 24 hrs by HPLC analysis; format: physicochemical
[25] = Half life in rat at 5 mg/kg, po; format: ADME, organism-based; settings: in vivo
[26] = Oral bioavailability in rat at 5 mg/kg measured for 24 hrs by LC-MS/MS analysis; format: ADME, organism-based; settings: in vivo
[27] = test system: Calu-6; experiment: Antitumor activity against human Calu-6 cells xenografted in athymic nude mouse assessed as tumor growth inhibition at 50 mg/kg, po administered once daily for 21 days relative to control; format: functional; settings: Calu-6, 504 h, time 21 day, read-out: TGI
[28] = test system: Calu-6; experiment: Antitumor activity against human Calu-6 cells xenografted in athymic nude mouse assessed as tumor growth inhibition at 25 mg/kg, po administered once daily for 21 days relative to control; format: functional; settings: Calu-6, 504 h, time 21 day, read-out: TGI
[29] = test system: Calu-6; experiment: Antitumor activity against human Calu-6 cells xenografted in athymic nude mouse assessed as tumor growth inhibition at 12.5 mg/kg, po administered once daily for 21 days relative to control; format: functional; settings: Calu-6, 504 h, time 21 day, read-out: TGI
[30] = test system: NCI-H1975; experiment: Antitumor activity against human NCI-H1975 cells xenografted in female nude mouse assessed as tumor growth inhibition at 20 mg/kg, po adminstered once daily for 25 days relative to control; format: functional; settings: NCI-H1975, 600 h, time 25 day, read-out: TGI
[31] = Cytotoxicity against HUVEC cells assessed as reduction in cell viability after 72 hrs by CellTiter-Glo assay; format: toxicity, cell-based; settings: human
[32] = Volume of distribution at steady state in Sprague-Dawley rat at 10 mg/kg, iv by LC-MS/MS analysis; format: ADME, organism-based; settings: in vivo, read-out: Vdss
[33] = Clearance in Sprague-Dawley rat at 10 mg/kg, iv by LC-MS/MS analysis; format: ADME, organism-based; settings: in vivo
[34] = Oral bioavailability in Sprague-Dawley rat at 10 mg/kg by LC-MS analysis; format: ADME, organism-based; settings: in vivo
[35] = biological target: Fibroblast growth factor receptor 1 (Homo sapiens, UniProt P11362); experiment: Inhibition of FGFR1 (unknown origin)
Fibroblast growth factor receptor 1, sequence (P11362 whole entry): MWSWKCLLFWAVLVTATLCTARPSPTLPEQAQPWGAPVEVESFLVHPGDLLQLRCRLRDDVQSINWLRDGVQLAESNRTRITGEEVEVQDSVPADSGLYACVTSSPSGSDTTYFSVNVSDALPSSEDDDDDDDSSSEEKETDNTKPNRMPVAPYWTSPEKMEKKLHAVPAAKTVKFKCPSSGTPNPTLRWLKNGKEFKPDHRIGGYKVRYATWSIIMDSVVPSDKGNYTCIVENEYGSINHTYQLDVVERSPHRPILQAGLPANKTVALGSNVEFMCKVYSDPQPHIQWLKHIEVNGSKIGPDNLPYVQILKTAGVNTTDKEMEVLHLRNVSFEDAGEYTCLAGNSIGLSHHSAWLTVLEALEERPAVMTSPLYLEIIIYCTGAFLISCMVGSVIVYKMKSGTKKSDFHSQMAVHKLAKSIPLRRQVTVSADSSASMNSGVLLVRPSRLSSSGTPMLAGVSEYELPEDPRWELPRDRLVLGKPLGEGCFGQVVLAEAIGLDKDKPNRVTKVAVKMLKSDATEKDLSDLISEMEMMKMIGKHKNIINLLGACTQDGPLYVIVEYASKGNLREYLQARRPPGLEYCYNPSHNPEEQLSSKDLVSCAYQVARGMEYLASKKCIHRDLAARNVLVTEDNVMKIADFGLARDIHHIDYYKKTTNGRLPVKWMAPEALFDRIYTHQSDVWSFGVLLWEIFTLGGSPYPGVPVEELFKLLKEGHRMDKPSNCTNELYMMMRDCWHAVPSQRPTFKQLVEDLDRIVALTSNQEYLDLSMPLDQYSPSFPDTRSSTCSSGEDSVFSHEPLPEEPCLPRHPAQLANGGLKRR

IC50 [4]: 1270 nM
IC50 [5]: 100 nM
Compound: Cn1c(=O)cc(Nc2ccc(Br)cc2)c2c(=O)n(C3CC3)c(=O)n(-c3ccccc3)c21

IC50 [10]: 20 nM
Compound: CC(Oc1cc(-c2cnn(C3CCNCC3)c2)cnc1N)c1c(Cl)ccc(F)c1Cl (stereo not drawn)

IC50 [4]: 13 nM
IC50 [5]: 1.5 nM
Compound: Cn1c(=O)cc(Nc2ccc(I)cc2F)c2c(=O)n(C3CC3)c(=O)n(-c3ccccc3)c21

IC50 [11]: 524 nM
Compound: Cc1ccc(NC(=O)c2cc(C(F)(F)F)ccn2)cc1C#Cn1cnc2c(NC3CC3)ncnc21

IC50 [12]: 400 nM
IC50 [13]: 60900 nM
Compound: Cc1c[nH]c(/C=C2\C(=O)Nc3ccccc32)c1CCC(=O)O

IC50 [2]: 80 nM
IC50 [3]: 20 nM
Compound: C=CC(=O)Nc1cccc(Nc2ncc(Cl)c(-c3c[nH]c4ccccc34)n2)c1

IC50 [14]: 3.4 nM
Compound: COc1cc2nccc(Oc3ccc(NC(=O)NC4CC4)c(Cl)c3)c2cc1C(N)=O [LENVATINIB]

IC50 [16]: 16 nM
GI50 [17]: 7 nM
GI50 [18]: 10 nM
GI50 [19]: 380 nM
solubility [20]: 28 µM (≈ 14.9 µg/mL)
Compound: C=CC(=O)Nc1cc(Nc2ncc(Cl)c(-c3cnn4ccccc34)n2)c(OC)cc1C1CC[C@@H](N(C)C)C1 (stereo partly drawn)
IC50 [15]: 2 nM
IC50 [21]: 5600 nM

solubility at 24 h [24]: 330 µM (≈ 157 µg/mL)
half-life [25]: 15 h
bioavailability [26]: > 50%
Compound: COc1cc2/c(=N/c3ccc(Br)cc3F)nc[nH]c2cc1OCC1CCN(C)CC1 [VANDETANIB]
Activity [23]: 79%
inhibition in vivo at 50 mg/kg [27]: 67%
inhibition in vivo at 25 mg/kg [28]: 51%
inhibition in vivo at 12.5 mg/kg [29]: 36%

IC50 [4]: 4800 nM
IC50 [5]: 990 nM
Compound: Cn1c(=O)cc(Nc2ccc(Cl)cc2)c2c(=O)n(-c3ccccc3)c(=O)n(-c3ccccc3)c21

IC50 [11]: 14100 nM
Compound: Cc1ccc(NC(=O)c2cc(C(F)(F)F)ccn2)cc1/C=C/n1cnc2c(NC3CC3)ncnc21

Second part, the molecule before the results:

Compound: C=CC(=O)Nc1ccc(OC)c(Nc2ncc(Cl)c(-c3c[nH]c4ccccc34)n2)c1
IC50 [1]: 60 nM
IC50 [2]: 20 nM
IC50 [3]: 150 nM

Compound: COc1cc2nccc(Nc3ccc(NC(=S)NC(=O)Cc4ccccc4)cc3F)c2cc1OC
IC50 [6]: 20 nM
IC50 [7]: 121 nM

Compound: COc1cc2ncnc(Nc3cccc(C)c3)c2cc1OC
half-life [8]: 1 h
IC50 [9]: 50 nM

Compound: Cc1cccc(Nc2ncnc3ccc(N)cc23)c1
IC50 [22]: 50 nM
IC50 [9]: 1000 nM

Compound: CN(C)C/C=C/C(=O)Nc1cc2c(Nc3ccc(F)c(Cl)c3)ncnc2cc1O[C@H]1CCOC1 [AFATINIB]
inhibition in vivo at 20 mg/kg [30]: 12%

Compound: Cc1ccc2cc(NC(=O)c3ccccc3Sc3ccc4c(/C=C/c5ccccn5)n[nH]c4c3)ccc2n1
IC50 at 72 h [31]: 0.8 nM

Compound: Cc1nc(Nc2ncc(C(=O)Nc3c(C)cccc3Cl)s2)cc(N2CCN(CCO)CC2)n1 [DASATINIB ANHYDROUS]
Vd [32]: 6.3 L/kg
clearance [33]: 26.4 mL/min/kg
bioavailability [34]: 27%

Compound: COc1cc(/C=C/c2n[nH]c3ccccc23)ccc1O
IC50 [35]: 1900 nM
